# Data as given in patent US6620793B2, “Therapeutic use of ganglioside GM1 in the treatment of spinal cord injury” (Fidia Farmaceutici S.p.A., priority 1991, dated 2003).
# Values joined by “and” are separate entries in the source; they are usually repeats but may differ in a detail not shown here. Equal entries are not always repeated.
# What was measured:
# [1] = system: patients with spinal cord injury; assay: Randomized placebo-controlled double-blind spinal cord injury GM1 trial: Frankel grade; assay type: in vivo, humans
# From the text: The first clinical scale used, that is the Frankel classification system, is extremely important because it provides a very relevant clinical index of neurological improvement of the patients.
# More precisely, the Frankel classification system separates neurologic disability into five ordinal grades, according to the type and completeness of neurologic function remaining below the level of the spinal-cord injury, as follows: grad A, complete neurclogic injury; grade B, only sensation preserved; grade C, nonfunctional motor ability preserved; grade D, functional motor ability preserved; and grade E, normal motor function. The letters designating each grade were used by Frankel in his original description of this scale.
# [2] = Solubility of purified GM1 sodium salt; assay type: physicochemical
# From the text: The compound obtained after this purification has the following chemical characteristics and specifications:
# Soluble in water, methanol-water and methanol-chloroform.
# [3] = system: patients with spinal cord injury; assay: Randomized placebo-controlled double-blind spinal cord injury GM1 trial: ASIA motor score
# From the text: This study was designed as a pilot study to test whether the neurologic recovery in humans after a spinal-cord injury could be altered by adding monosialbtetrahexosylganglioside (GM1) ganglioside beyond the routine medical and surgical care with which these trauma patients are initially treated.
# A prospective, randomized, placebo-controlled, double-blinded spinal cord injury GM1 ganglioside drug trial was completed. Of the 37 patients, 34 patients (23 cervical and 11 thoracic injuries) who were randomly assigned to a treatment group and who followed the test drug protocol and completed the one year follow-up period, 16 patients were included in the GM1 group and 18 were in the placebo group.
# The first dose of study drug was administered within 72 hours of the injury and then 17 to 29 additional 5 ml daily injections of 100 mg GM1 or placebo were given. The treatment (100 mg of GM1 sodium salt or placebo) was administered duly by the intravenous route for a total of 18-32 doses, with the first dose taken within 72 hours of the injury.
# The complete composition of the GM1 ganglioside used in the study (Sygen, Fidia, Abano Terme, Italy) is 100 mg of GM1 sodium salt, 12.7 mM; 1.25 mg of sodium dihydrogen phosphate dihydrate, 1.6 mM; 15.0 mg of disodium hydrogen phosphate dodecahydrate, 8.4 mM; 40.0 mg of sodium chloride, 137.9 nM; and a quantity of water sufficient to yield an isotonic solution with a total volume of 5 ml for injection. The placebo vials were identical in appearance and composition, except that the GM1 was absent. Most of the test drug was administered by injection through an intravenous heparin lock. Some of the first few injections were given by an intravenous catheter, and occasionally, when the heparin lock was nonfunctional, a single direct-puncture intravenous injection was used.
# The severity of spinal-cord injury and its subsequent recovery were quantified by serial measurement with both the Frankel scale and the American Spinal Injury Association (ASIA) motor score. Each measurement was made at the time of the first contact in the emergency room, at entry into the study, then twice per week for the first 4 weeks and after 2, 3, 6 and 12 months.
# The second clinical scale used, that is the ASIA motor score, provides a quantifiable index of nerve-muscle functionality. More exactly, this scale has a range of 0 (complete quadriplegia) to 100 (normal motor function). Five key muscles in each extremity (the biceps, wrist extensors, triceps, flexor profundus, and hand intrinsics in the upper extremity, and the iliopsoas, quadriceps, tibialis anterior, extensor hallucis longus, and gastrocnemius in the lower extremity) are assessed on a scale for strength from 0 to 5 points in which 0 (absent) denotes total paralysis, 1 (trace) palpable or visible penetration, 2(poor) active movement through a range of motion in which gravity is not involved, 3 (fair) active movement through a range of motion against gravity, 4 (good) active movement through a range of motion against resistance, and 5 normal. The ASIA motor score is the sum of the scores for muscle strength in these 20 motor groups.
# Furthermore, to better analyze the GM1 effect on muscular functionality, the 20 individual muscle groups in each patient were subdivided into three categories at entry: those initially paralyzed (a motor score of 0), those initially paretic (a motor score of 1 through 4), and those functioning normally (a motor score of 5).
structure (smiles),measurement,setting,value
"CCCCCCCCCCCCCC=CC(O)C(COC1OC(CO)C(OC2OC(CO)C(OC3OC(CO)C(O)C(OC4OC(CO)C(O)C(O)C4O)C3NC(C)=O)C(OC3(C(=O)[O-])CC(O)C(NC(C)=O)C(C(O)C(O)CO)O3)C2O)C(O)C1O)NC(=O)CCCCCCCCCCCCCCCCC.[Na+] (stereo not drawn) [GM1, Monosialotetrahexosylganglioside, sodium salt]",Patients improved by two or more Frankel grades who were in the GM1 group,"[1]; after one year, 100 mg GM1 i.v. daily, 18-32 doses, 8 of 34 patients improved overall",seven of eight
same,Improvement with respect to Frankel grade versus placebo,"[1]; entry to one year, P=0.034 Cochran-Mantel-Haenszel chi-square test",improved more than the placebo-treated patients
same,Patients improved by two or more Frankel grades among those who had room to improve (number),"[1]; one year, placebo 1 of 14, P=0.033 Fisher's exact test, two-tailed",7 of 14
same,Patients improved by two or more Frankel grades among those who had room to improve (percent),"[1]; one year, placebo 7.1 percent, P=0.033 Fisher's exact test",50%
same,Solubility,"[2]; in methanol, acetone, chloroform, ether and hexane",Virtually insoluble
same,Solubility,"[2]; in water, methanol-water and methanol-chloroform",Soluble
same,"Difference in improvement in ASIA motor score between groups, unadjusted","[3]; GM1 versus placebo, one year, mean ± SD, n=34, sodium salt",15.3 and 15.3 ± 25.6
same,Improvement in mean ASIA motor score,"[3]; all patients, entry to one-year follow-up, mean ± SD, n=16",36.9 ± 28.2
same,Mean ASIA motor score at follow-up,"[3]; all patients, one-year follow-up, mean ± SD, n=16",62.8 ± 26.8
same,Mean ASIA motor score at entry,"[3]; all patients, study entry (baseline), mean ± SD, n=16, sodium salt",25.9 and 25.9 ± 21.8
same,Patients with a greater degree of ASIA motor recovery than any patient assigned to placebo,[3]; entry to one-year follow-up,three
same,Patients with motor recoveries of more than 20 points in ASIA motor score (number),"[3]; entry to one-year follow-up, placebo 7 of 18",11 of 16
same,Patients with motor recoveries of more than 20 points in ASIA motor score (percent),"[3]; entry to one-year follow-up, placebo 38.9 percent",68.8%
same,Patients with no recovery in ASIA motor score,"[3]; entry to one-year follow-up, placebo six patients",one
same,Mean motor recovery in ASIA motor score,"[3]; entry to score after one year, 95 percent CI 21.9 to 51.9",36.9 points
same,Muscle groups paralyzed at entry that regained useful-to-normal motor function (percent),"[3]; motor score 0 at entry to 3 to 5 after one year, placebo 25.3 percent",51.7%
same,Muscle groups paralyzed at entry that regained useful-to-normal motor function (number),"[3]; motor score 0 at entry to 3 to 5 after one year, placebo 49 of 194",107 of 207
same,Muscle groups paralyzed at entry that remained paralyzed (percent),"[3]; motor score 0 at entry, after one year, placebo 65.5 percent",30.9%
same,Muscle groups paralyzed at entry that remained paralyzed (number),"[3]; motor score 0 at entry, after one year, placebo 127 of 194",64 of 207
same,Patients with at least one muscle group paralyzed at entry that improved to a motor score of 3 or more (number),"[3]; one-year follow-up, post hoc, placebo 8 of 18, P=0.039 Fisher's exact test",13 of 16
same,Patients with at least one muscle group paralyzed at entry that improved to a motor score of 3 or more (percent),"[3]; one-year follow-up, post hoc, placebo 44.4 percent, P=0.039 Fisher's exact test",81.3%
